Data taken from patent publication US9549935B2, “Methods and compositions for treating migraines using noribogaine” (DemeRx, Inc., priority 2014, dated 2017).
“Also recorded” adds a separate entry of the source.

Assays:
Format in all cases: in vivo, human
[1] = Pupillary miosis assessed by pupillometry in healthy volunteers; conditions: 3-60 mg single oral doses vs placebo, up to 216 hours, p>0.9
Procedure: (§1) Pulse oximetry and capnography data were collected continuously using a GE Carescape B650 monitoring system from 2 hours prior to dosing and until six hours after dosing, and thereafter at 12, 24, 48 and 72 hours post-dosing. Additional oximetry data were collected at 120, 168 and 216 hours. Pupillary miosis was assessed by pupillometry. Dark-adapted pupil diameter was measured in triplicate using a Neuroptics PLR-200 pupillometer under standardized light intensity (<5 lux) pre-dose, and at 2, 4, 6, 12, 24, 48, 72, 96, 120, 168 and 216 hours post-dosing.
Summary statistics (means, standard deviations, and coefficients of variation) were determined for each dose group for safety laboratory test data, ECG and pharmacokinetic parameters, and pharmacodynamic variables. Categorical variables were analysed using counts and percentages. Dose-proportionality of AUC and Cmax was assessed using linear regression. The effect of dose on pharmacodynamic parameter values over time was assessed using two-factor analysis of variance (ANOVA). Pairwise comparisons (with Tukey-Kramer adjustment) between each dose group to the placebo were conducted at each time point using the least squares estimates obtained from the ANOVA, using SAS Proc Mixed (SAS ver 6.0).

[2] = Opiate withdrawal scales (COWS, SOWS, OOWS) in opioid-dependent patients; conditions: single 120 mg dose, first six hours following dosing
Procedure: Patients were evaluated based on the Clinical Opiate Withdrawal Scale (COWS), Subjective Opiate Withdrawal Scale (SOWS), and Objective Opiate Withdrawal Scale (OOWS) scoring systems over the period of time between administration of noribogaine (or placebo) until resumption of OST. These scales are outlined in Guidelines for the Psychosocially Assisted Pharmacological Treatment of Opioid Dependence, World Health Organization, Geneva (2009), Annex 10, which is incorporated herein by reference in its entirety. The scales measure the intensity of withdrawal symptoms, based on clinical, subjective, and objective indicia.

[3] = Time to resumption of opioid substitution treatment (OST) in opioid-dependent patients
[4] = Safety and tolerability in healthy volunteers (adverse events, vital signs, ECG)
Procedure: as §1
(§2) Safety and tolerability of noribogaine were tested in the group of volunteers from Example 1. Cold pressor testing was conducted in 1° C. water according to the method of Mitchell et al. (J Pain 5:233-237, 2004) pre-dose, 6, 24, 48, 72 and 216 hours post-dosing. Safety evaluations included clinical monitoring, recording of adverse events (AEs), safety laboratory tests, vital signs, ECG telemetry from −2 h to 6 h after dosing, and 12-lead electrocardiograms (ECGs) up to 216 hours post-dosing.

[5] = Cold pressor test (analgesic effect) in healthy volunteers; conditions: 3-60 mg single oral doses vs placebo, 1° C. water
Procedure: Analgesic effect was assessed based on duration of hand immersion in ice water and on visual analog scale (VAS) pain scores upon hand removal from the water bath.
as §2

[6] = 3 mg dose group, healthy volunteers
[7] = 10 mg dose group, healthy volunteers
[8] = 30 mg dose group, healthy volunteers

CC[C@H]1CC2C[C@H]3c4[nH]c5ccc(O)cc5c4CCN(C2)C13 [Noribogaine, noribogaine]
pupillary constriction (dark-adapted pupil diameter) [1]: no evidence of pupillary constriction | withdrawal symptoms (COWS, OOWS, SOWS scores) [2]: fewer withdrawal symptoms than the other patients | average time to resumption of opioids (OST) ([3]; single 120 mg dose): greater than 20 hours | average time to resumption of opioids (OST) ([3]; single 180 mg dose): still longer than untreated patients (7 hours, not shown) or those administered 60 mg noribogaine | Adverse events, Mild [4, 6]: Dizziness; also recorded: Epistaxis; also recorded: Headache; also recorded: Back pain | Adverse events, Moderate [4, 6]: Headache | number of adverse events reported [4, 6]: five adverse events were reported by two subjects | Adverse events, Mild [4, 7]: Headache | number of adverse events reported [4, 7]: one adverse event was reported by single subjects | Adverse events, Mild [4, 8]: Headache | number of adverse events reported [4, 8]: one adverse event was reported by single subjects | changes in oximetry, capnography, respiratory rate ([4]; 3-60 mg, healthy volunteers): no changes in oximetry or capnography, or changes in respiratory rate | changes in vital signs or safety laboratory tests ([4]; 3-60 mg, healthy volunteers): no changes in vital signs or safety laboratory tests of note | QTcF values >500 msec ([4]; 3-60 mg, healthy volunteers, ECG up to 216 hours): no QTcF values >500 msec at any time | intensity of adverse events ([4]; all dose groups, healthy volunteers): mild-moderate intensity | single increase in QTcF ([4]; one subject dosed with 10 mg, 24 hours post-dosing): > 60 ms | analgesic effect in the cold pressor test (duration of hand immersion, VAS pain scores) [5]: no analgesic effect
